Results on 1 molecule are retold here after ChEMBL document CHEMBL3352591, “Total synthesis of clavatadine A” (J Nat Prod, 2015).

The target in the assay is Coagulation factor XI (Homo sapiens, UniProt P03951). The assay is described as follows: Inhibition of human coagulation factor 11a pre-incubated for 15 mins before substrate S2366 addition and measured after 2 hrs post substrate addition.
Sequence of Coagulation factor XI (P03951 19-387 limits assumed): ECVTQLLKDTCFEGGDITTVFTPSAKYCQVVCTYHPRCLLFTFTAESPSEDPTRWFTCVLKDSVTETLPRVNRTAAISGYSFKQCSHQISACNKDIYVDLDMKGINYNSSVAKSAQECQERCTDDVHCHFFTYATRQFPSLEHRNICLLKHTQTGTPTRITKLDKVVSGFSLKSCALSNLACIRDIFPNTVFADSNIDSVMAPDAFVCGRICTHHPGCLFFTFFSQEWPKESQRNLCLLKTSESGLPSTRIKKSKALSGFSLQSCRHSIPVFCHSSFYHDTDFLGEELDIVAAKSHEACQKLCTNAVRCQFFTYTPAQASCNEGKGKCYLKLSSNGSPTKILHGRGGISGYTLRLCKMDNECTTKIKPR
Sequence of Coagulation factor XI (P03951 388-625 limits assumed): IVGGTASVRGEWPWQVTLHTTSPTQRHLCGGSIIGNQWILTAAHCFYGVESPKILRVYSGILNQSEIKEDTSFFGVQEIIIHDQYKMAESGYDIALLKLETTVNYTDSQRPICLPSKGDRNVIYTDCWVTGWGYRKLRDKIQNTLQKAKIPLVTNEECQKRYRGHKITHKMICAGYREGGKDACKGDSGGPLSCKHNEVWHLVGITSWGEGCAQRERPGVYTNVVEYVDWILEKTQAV

By IC50 is commonly meant the concentration that inhibits the measured activity by half. With `N=C(N)NCCCCNC(=O)Oc1c(Br)cc(O)c(CC(=O)O)c1Br`, the IC50 turned out to be 6.3 µM.
